In patent US9475784B2, “4,6-diarylaminothiazines as BACE1 inhibitors and their use for the reduction of beta-amyloid production” (BRISTOL-MYERS SQUIBB COMPANY, priority 2012, dated 2016):
pIC50: −log10 of the molar value.

System: Aβ42 production in H4 cells stably transfected with APP751 containing the Swedish mutation (H4 APP751 SWE clone 8.20)
Experiment: Cellular assay for inhibition of Aβ1-42 production (H4 APP751 SWE clone 8.20)
Format: cell-based
Details: H4 APP751 SWE clone 8.20 cells, 19 h incubation; Table 5B, 6-heterocyclic thiazine examples
Protocol: Cellular Assays for Inhibition of Aβ1-40 and Aβ1-42 Production
H4 cells stably transfected with APP751 containing the Swedish mutation (H4 APP751 SWE clone 8.20, developed at BMS) were maintained in log phase through twice weekly passage at a 1:20 split. […] Following incubation for 19 h in 5% CO2 at 37° C., plates were briefly centrifuged (1000 rpm, 5 min). A 10 μl aliquot from each well was transferred to a second assay plate (Costar 3709) for Aβ40 measurements. Antibody cocktails were freshly prepared by dilution into 40 mM Tris-HCl (pH 7.4) with 0.2% BSA and added to assay plates. For Aβ42 measurements, antibodies specific for the Aβ42 neoepitope (565, developed at BMS; conjugated to the Wallac reagent (Perkin Elmer)) and the N-terminal sequence of Aβ peptide (26D6, developed at SIBIA; conjugated to APC (Perkin Elmer)) were mixed and 20 μl of the mixture was added to each well of the incubated cell plate yielding a final concentration of 0.8 ng/well 565 and 75 ng/well 26D6. For the Aβ40 measurements, antibodies specific for the Aβ40 neoepitope (TSD, developed at BMS; conjugated to the Wallac reagent (Perkin Elmer)) and 26D6 as described above were mixed and 20 μl of the mixture was added to the 10 μl aliquots which had been removed previously from the cell plate yielding a final concentration of 1.6 ng/well TSD and 17.5 ng/well 26D6. Assay plates containing antibodies were sealed with aluminum foil and incubated overnight at 4° C. Signal was determined using a Viewlux counter (Perkin Elmer) and IC50 values determined using curve fitting in CurveMaster (Excel Fit based).

Compound | pIC50
Cc1noc(C)c1[C@@H]1C[C@@](C)(c2cc(-c3cnc(S(C)(=O)=O)nc3)c(F)cc2F)N=C(N)S1 [Example 52, (4S,6S)-4-(2,4-difluoro-5-(2-(methylsulfonyl)pyrimidin-5-yl)phenyl)-6-(3,5-dimethylisoxazol-4-yl)-4-methyl-5,6-dihydro-4H-1,3-thiazin-2-amine] | 6.09
Cc1noc(C)c1[C@@H]1C[C@@](C)(c2cc(-c3cncc(O)c3)c(F)cc2F)N=C(N)S1 [Example 53, 5-(5-((4S,6S)-2-amino-6-(3,5-dimethylisoxazol-4-yl)-4-methyl-5,6-dihydro-4H-1,3-thiazin-4-yl)-2,4-difluorophenyl)pyridin-3-ol] | 6.52
COc1ccc(-c2cc([C@]3(C)C[C@@H](c4c(C)noc4C)SC(N)=N3)c(F)cc2F)cn1 [Example 54, (4S,6S)-4-(2,4-difluoro-5-(6-methoxypyridin-3-yl)phenyl)-6-(3,5-dimethylisoxazol-4-yl)-4-methyl-5,6-dihydro-4H-1,3-thiazin-2-amine] | 6.49
Cc1noc(C)c1[C@@H]1C[C@@](C)(c2cc(-c3cccnc3C#N)c(F)cc2F)N=C(N)S1 [Example 55, 3-(5-((4S,6S)-2-amino-6-(3,5-dimethylisoxazol-4-yl)-4-methyl-5,6-dihydro-4H-1,3-thiazin-4-yl)-2,4-difluorophenyl)picolinonitrile] | 7.06
COc1ncccc1-c1cc([C@]2(C)C[C@@H](c3c(C)noc3C)SC(N)=N2)c(F)cc1F [Example 56, (4S,6S)-4-(2,4-difluoro-5-(2-methoxypyridin-3-yl)phenyl)-6-(3,5-dimethylisoxazol-4-yl)-4-methyl-5,6-dihydro-4H-1,3-thiazin-2-amine] | 6.17
COc1ncc(-c2cc([C@]3(C)C[C@@H](c4c(C)noc4C)SC(N)=N3)c(F)cc2F)cc1Cl [Example 57, (4S,6S)-4-(5-(5-chloro-6-methoxypyridin-3-yl)-2,4-difluorophenyl)-6-(3,5-dimethylisoxazol-4-yl)-4-methyl-5,6-dihydro-4H-1,3-thiazin-2-amine] | 6.42
COc1ncc(-c2cc([C@]3(C)C[C@@H](c4c(C)noc4C)SC(N)=N3)c(F)cc2F)cn1 [Example 58, (4S,6S)-4-(2,4-difluoro-5-(2-methoxypyrimidin-5-yl)phenyl)-6-(3,5-dimethylisoxazol-4-yl)-4-methyl-5,6-dihydro-4H-1,3-thiazin-2-amine] | 6.92
Cc1noc(C)c1[C@@H]1C[C@@](C)(c2cc(-c3cnccc3C(F)(F)F)c(F)cc2F)N=C(N)S1 [Example 59, (4S,6S)-4-(2,4-difluoro-5-(4-(trifluoromethyl)pyridin-3-yl)phenyl)-6-(3,5-dimethylisoxazol-4-yl)-4-methyl-5,6-dihydro-4H-1,3-thiazin-2-amine] | 6.17
Cn1nccc1[C@@H]1C[C@@](C)(c2ccc(F)cc2F)N=C(N)S1 [Example 60, (4S,6S)-4-(2,4-difluorophenyl)-4-methyl-6-(1-methyl-1H-pyrazol-5-yl)-5,6-dihydro-4H-1,3-thiazin-2-amine] | 6.48
Cc1nocc1[C@@H]1C[C@@](C)(c2ccc(F)cc2F)N=C(N)S1 [Example 61, (4S,6S)-4-(2,4-difluorophenyl)-4-methyl-6-(3-methylisoxazol-4-yl)-5,6-dihydro-4H-1,3-thiazin-2-amine] | 6.52
C[C@@]1(c2ccc(F)cc2F)C[C@@H](c2cncnc2)SC(N)=N1 [Example 62, (4S,6S)-4-(2,4-difluorophenyl)-4-methyl-6-(pyrimidin-5-yl)-5,6-dihydro-4H-1,3-thiazin-2-amine] | 6.51
